Experimental findings from ChEMBL document CHEMBL5390259, “Structure Determination of Kahalalide Analogues Based on Metagenomic Analysis of a Bryopsis sp. Marine Green Alga” (J Nat Prod, 2023) are described below.

This data set can be described thus: Cytotoxicity against rat 3Y1 cells incubated for 2 days by MTT assay. It counts as toxicity, cell-based.

Each structure is given as a SMILES string.

With `C/C=C1\NC(=O)[C@H](Cc2ccccc2)NC(=O)[C@@H]([C@@H](C)CC)NC(=O)[C@@H]([C@@H](C)CC)NC(=O)[C@H](NC(=O)[C@@H](CC(C)C)NC(=O)[C@H](CCCN)NC(=O)[C@H]2CCCN2C(=O)[C@H](NC(=O)[C@@H](NC(=O)[C@@H](NC(=O)[C@H](NC(=O)C=C(C)C)[C@@H](C)O)C(C)C)C(C)C)C(C)C)[C@@H](C)OC(=O)[C@H](C(C)C)NC1=O`, 7.4 µM corresponded to half-maximal inhibition (IC50 at 2 days).

As for `C/C=C1\NC(=O)[C@H](Cc2ccccc2)NC(=O)[C@@H]([C@@H](C)CC)NC(=O)[C@@H]([C@@H](C)CC)NC(=O)[C@H](NC(=O)[C@@H](CC(C)C)NC(=O)[C@H](CCCN)NC(=O)[C@H]2CCCN2C(=O)[C@H](NC(=O)[C@@H](NC(=O)[C@@H](NC(=O)[C@H](NC(=O)CCC)[C@@H](C)O)C(C)C)C(C)C)C(C)C)[C@@H](C)OC(=O)[C@H](C(C)C)NC1=O`, the IC50 (commonly the midpoint of a concentration-inhibition curve) at 2 days worked out at 10 µM.
